Assay results as given in patent US20220288065A1, “MONOCYCLIC AGONISTS OF STIMULATOR OF INTERFERON GENES STING” (The Scripps Research Institute, priority 2019, published 2022).

Tested on: THP-1 Lucia ISG cells
Test: ISG-LUC activation assay (ISRE-luciferase assay)
Type: cell-based
Conditions: Homo sapiens, THP1-Lucia ISG, activity score based upon potency and efficacy data, 24 hours
Excerpt: We have established a robust platform for identifying non-nucleotide small molecule STING agonists. This has been established using a primary assay involving a human THP-1 cell line carrying an IRF-inducible reporter with 5 copies of the IFN signaling response element. Counter screens, involving alternative reporter constructs, rodent cell-based assays, as well as cGAS and STING knock-out cell lines, are used to eliminate luciferase artifacts and ensure human-rodent cross species reactivity, as well as pathway selectivity. Biochemical assays, involving cGAS enzymatic activity and STING protein binding assays, are used to identify the specific target of identified hits.
Tissue culture. Wild-type (cat. no. thpl-isg) and STING KO (cat. no. thpd-kostg) THP-1-Lucia ISG cells were purchased from Invivogen and maintained in growth media consisting of RPMI 1640, 2 mM L-glutamine, 25 mM HEPES, 10% heat-inactivated fetal bovine serum (FBS), 1,000 units/ml penicillin, 1,000 μg/ml streptomycin, 0.25 μg/ml Amphotericin B, and 100 μg/ml zeocin unless otherwise stated.
ISRE-luciferase assay. THP-1 Lucia ISG cells were resuspended in low-serum growth media (2% FBS) at a density of 5×10^5 cells/ml and treated with test article or vehicle (DMSO). 50 μL of cells were seeded into each well of a 384-well white greiner plates and incubated for 24 hours. To evaluate expression of the luciferase reporter, 30 μl of Quanti-luc (Invivogen) detection reagent was added to each well and luminescence was read using an Envision plate reader (Perkin Elmer) set with an integration time of 0.1 seconds.

Structure (SMILES) | EC50 [nM]
CC#Cc1cc(NC(=O)c2ccc(-n3ccnc3)nn2)c(C(=O)OCC)nc1Cl [Compound 95] | < 900
COC(=O)c1cc(F)c(F)cc1NC(=O)c1cc(CN)c(-n2ccnc2)nn1 [Compound 65] | > 1000
COc1cncc(-c2ccc(C(=O)Nc3cc(F)c(F)cc3C(=O)O)nn2)c1 [Compound 19] | > 1000
COC(=O)NCc1cc(C(=O)Nc2cc(Cl)c(Cl)cc2C(=O)OC)nnc1-n1ccnc1 [Compound 47] | > 1000
C#Cc1cc(NC(=O)c2ccc(-n3ccnc3)nn2)c(C(=O)OC(C)C)nc1Cl [Compound 97] | < 900
C#Cc1cc(NC(=O)c2cn(-c3cn[nH]c3)nn2)c(C(=O)OC)cc1F [Compound 35] | < 900
C=Cc1cc(NC(=O)c2ccc(-n3ccnc3)nn2)c(C(=O)O)cc1F [Compound 88] | < 900
COC(=O)c1cc(F)c(F)cc1NC(=O)c1cc(N)cnn1 [Compound 20] | < 900
C#Cc1cc2nc(-c3ccc(-n4ccnc4)nn3)oc(=O)c2cc1Cl [Compound 80] | < 900
C#Cc1cc(NC(=O)c2ccc(-n3ccnc3)nn2)c(C(=O)OC)nc1C#N [Compound 107] | < 900
COC(=O)c1cc(F)c(F)cc1NC(=O)c1ccc(-c2ccnc(N)c2)nn1 [Compound 40] | < 900
COC(=O)c1cc(F)c(F)cc1NC(=O)c1ccc(-c2cn[nH]c2)nn1 [Compound 58] | < 900
O=C(Nc1cc(Cl)c(Cl)nc1C(=O)O)c1ccc(-c2cc[nH]n2)nn1 [Compound 33] | > 1000
C#Cc1cc(NC(=O)c2cn(-c3cn[nH]c3)nn2)c(C(=O)O)cc1F [Compound 36] | > 1000
COC(=O)c1cc(F)c(F)cc1NC(=O)c1ccc(-c2c[nH]nn2)nn1 [Compound 15] | < 900
C#Cc1cc(NC(=O)c2ccc(-n3ccnc3)nn2)c(C(=O)OCCN2CCOCC2)nc1Cl [Compound 98] | < 900
COC(=O)c1cc(F)c(Cl)cc1NC(=O)c1ccc(-c2cn[nH]c2)nn1 [Compound 69] | < 900
COC(=O)c1cc(C#N)c(Cl)cc1NC(=O)c1ccc(-c2c[nH]nn2)nn1 [Compound 30] | < 900
COC(=O)c1cc(Cl)c(Cl)cc1NC(=O)c1ccc(-n2ccnc2)cn1 [Compound 25] | > 1000
C#Cc1cc(NC(=O)c2ncc(-c3cn[nH]c3)cn2)c(C(=O)O)cc1F [Compound 108] | > 20000
COC(=O)c1cc(F)c(F)cc1NC(=O)c1ccc(CO)nn1 [Compound 17] | < 3000
C/C=C/c1cc(NC(=O)c2ccc(-n3ccnc3)nn2)c(C(=O)O)cc1F [Compound 89] | < 900
C#Cc1cc2nc(-c3ccc(-n4ccnc4)nn3)oc(=O)c2nc1Cl [Compound 93] | < 3000
COC(=O)c1nc(Cl)c(Cl)cc1NC(=O)c1ccc(-c2cc[nH]n2)nn1 [Compound 34] | < 900
O=C(Nc1cc(F)c(F)cc1C(=O)O)c1ccc(-c2cccnc2)nn1 [Compound 21] | > 1000
CS(=O)(=O)NCCNc1cc(C(=O)Nc2cc(F)c(F)cc2C(=O)O)nnc1-n1ccnc1 [Compound 6] | > 1000

Structure (SMILES) | EC50 [nM]
COC(=O)c1cc(Cl)c(Cl)cc1NC(=O)c1cc(CN)c(-n2ccnc2)nn1 [Compound 26] | < 900
C#Cc1cc(NC(=O)c2ccc(-n3ccnc3)nn2)c(C(=O)O)cc1Cl [Compound 81] | < 900
COC(=O)c1cc(Cl)c(F)cc1NC(=O)c1ccc(-c2cn[nH]c2)nn1 [Compound 57] | < 900
N#Cc1cc(C(=O)O)c(NC(=O)c2ccc(-c3c[nH]nn3)nn2)cc1Cl [Compound 72] | > 20000
COC(=O)c1cc(F)c(F)cc1NC(=O)c1ccc(N)nn1 [Compound 8] | > 1000
COC(=O)c1cc(Cl)c(Cl)cc1NC(=O)c1cn(-c2cn[nH]c2)nn1 [Compound 23] | < 900
COC(=O)c1cc(F)c(F)cc1NC(=O)c1cc(NCc2ccc(OC)cc2)cnn1 [Compound 59] | < 900
O=C(Nc1cc(Cl)c(Cl)cc1C(=O)O)c1ccc(-c2cn[nH]c2)nn1 [Compound 49] | > 1000
C#Cc1cc(NC(=O)c2ccc(-n3ccnc3)nn2)c(C(=O)OC(OC(=O)C(C)C)C(C)C)cc1F (centres unmarked) [Compound 94] | < 900
C#Cc1cc(NC(=O)c2ccc(-n3ccnc3)nn2)c(C(=O)OCC)cc1F [Compound 85] | < 900
O=C(Nc1cc(Cl)c(F)cc1C(=O)O)c1ccc(-c2cn[nH]c2)nn1 [Compound 67] | > 1000
COC(=O)c1cc(F)c(F)cc1NC(=O)c1cc(C)c(-n2ccnc2)nn1 [Compound 42] | > 1000
C#Cc1cc(NC(=O)c2ccc(-c3cn[nH]c3)nn2)c(C(=O)O)cc1Cl [Compound 53] | > 1000
O=C(Nc1cc(Cl)c(Cl)nc1C(=O)O)c1ccc(-c2cn[nH]c2)nn1 [Compound 52] | < 900
COC(=O)c1cc(F)c(F)cc1NC(=O)c1ccc(-c2cccnc2)nn1 [Compound 10] | > 1000
C#Cc1cc(NC(=O)c2ncc(-c3cn[nH]c3)cn2)c(C(=O)OC)cc1F [Compound 56] | > 20000
O=C(Nc1cc(F)c(Cl)cc1C(=O)O)c1ccc(-c2cn[nH]c2)nn1 [Compound 66] | > 1000
O=C(Nc1cc(Cl)c(Cl)cc1C(=O)O)c1cn(-c2cn[nH]c2)nn1 [Compound 64] | > 1000
COC(=O)c1cc(Cl)c(Cl)cc1NC(=O)c1ccc(N)nn1 [Compound 18] | > 1000
C=Cc1cc(NC(=O)c2ccc(-c3cn[nH]c3)nn2)c(C(=O)O)cc1F [Compound 44] | < 900
COC(=O)c1cc(C#N)c(Cl)cc1NC(=O)c1ccc(-c2cn[nH]c2)nn1 [Compound 68] | < 900
COC(=O)c1cc(F)c(F)cc1NC(=O)c1ccc(-n2ccnc2CO)nn1 [Compound 4] | < 3000
COC(=O)c1sc(C)cc1NC(=O)c1ccc(-n2ccnc2)nn1 [Compound 39] | > 1000
C#Cc1cc2nc(-c3ccc(-c4ccncc4)nn3)oc(=O)c2cc1F [Compound 3, 7-ethynyl-6-fluoro-2-(6-(pyridin-4-yl)pyridazin-3-yl)-4H-benzo[d][1,3]oxazin-4-one] | < 900
COC(=O)c1cc(F)c(F)cc1NC(=O)c1cc(C(N)=O)cnn1 [Compound 16] | > 1000
C#Cc1cc(NC(=O)c2ccc(-n3ccnc3)nn2)c(C(=O)OCC)nc1Cl [Compound 76] | < 900

Structure (SMILES) | EC50 [nM]
C#Cc1cc(NC(=O)c2ccc(-n3ccnc3)nn2)c(C(=O)NCCO)cc1F [Compound 106] | > 20000
COC(=O)c1cc(Cl)c(OC)cc1NC(=O)c1cc(N)ncn1 [Compound 12] | > 1000
N#Cc1n[nH]cc1-c1ccc(C(=O)Nc2cc(Cl)c(F)cc2C(=O)O)nn1 [Compound 28] | > 1000
CC#Cc1cc(NC(=O)c2ccc(-n3ccnc3)nn2)c(C(=O)O)nc1Cl [Compound 104] | < 900
COC(=O)c1cc(Cl)c(Cl)cc1NC(=O)c1nc(-c2cn[nH]c2)no1 [Compound 37] | < 3000
C#Cc1cc(NC(=O)c2ccc(-n3ccnc3)nn2)c(C(=O)O)cc1F [Compound 79] | < 900
O=C(Nc1cc(Cl)c(F)cc1C(=O)O)c1ccc(-c2cnsc2)nn1 [Compound 29] | < 900
COC(=O)c1cc(Cl)c(F)cc1NC(=O)c1ccncn1 [Compound 45] | > 1000
C#Cc1cc(NC(=O)c2ccc(-n3ccnc3)nn2)c(C(=O)O)nc1C [Compound 90] | < 3000
C#Cc1cc(NC(=O)c2ccc(-n3ccnc3)nn2)c(C(=O)OC(C)OC(=O)OCC)nc1Cl (centres unmarked) [Compound 102] | < 900
COC(=O)c1cc(Cl)c(Cl)cc1NC(=O)c1cc(CNC(N)=O)c(-n2ccnc2)nn1 [Compound 48] | > 1000
COC(=O)c1cc(Cl)c(Cl)cc1NC(=O)c1ccc(-c2nn(C)cc2C#N)nn1 [Compound 73] | > 20000
Cn1cc(C#N)c(-c2ccc(C(=O)Nc3cc(Cl)c(Cl)cc3C(=O)O)nn2)n1 [Compound 32] | > 20000
COC(=O)c1cc(C#N)c(Cl)cc1NC(=O)c1ccc(-c2c(Br)cnn2C)nn1 [Compound 27] | > 20000
COC(=O)c1cc(C#N)c(C#N)cc1NC(=O)c1ccc(-c2c(C#N)cnn2C)nn1 [Compound 71] | > 20000
C#Cc1cc(NC(=O)c2ccc(-n3ccnc3)nn2)c(C(=O)OC(C)C)cc1F [Compound 96] | > 1000
NC(=O)c1ccc(C(=O)Nc2cc(F)c(F)cc2C(=O)O)cn1 [Compound 13] | > 20000
O=C(Nc1cc(Cl)c(Cl)cc1C(=O)O)c1ccc(-c2c[nH]nn2)nn1 [Compound 51] | > 1000
COC(=O)c1cc(Cl)c(Cl)cc1NC(=O)c1ccc(-c2c[nH]nn2)nn1 [Compound 50] | < 900
C#Cc1cc(NC(=O)c2ccc(-c3cn[nH]c3)nn2)c(C(=O)O)cc1F [Compound 46] | > 1000
Cc1nc(C(=O)O)c(NC(=O)c2ccc(-n3ccnc3)nn2)cc1Cl [Compound 91] | > 1000
COC(=O)c1cc(F)c(F)cc1NC(=O)c1ccc(-c2ccncc2)nn1 [Compound 60] | < 900
COC(=O)c1cc(Cl)c(Cl)cc1NC(=O)c1nnc(-n2ccnc2)cc1CN [Compound 24] | < 900
N#Cc1cc(C(=O)O)c(NC(=O)c2ccc(-c3cn[nH]c3)nn2)cc1Cl [Compound 70] | > 20000
CCOC(=O)Nc1ccc(C(=O)Nc2cc(F)c(F)cc2C(=O)O)nn1 [Compound 11] | > 1000
